Where a name gives a salt, the structure may show the parent alone.
Assays:
[1] = system: tracheal secretion of phenol red; experiment: Secretion-stimulating activity: tracheal secretion of phenol red after oral administration to female mice; assay type: in vivo; details: Mus musculus, calculated from the regression curves
Description: Bronchosecretolytic compounds promote the tracheal secretion of phenol red (Chronic Bronchitis Research Group, Chinese Medical Journal 3: 259, 1977). The increase in the tracheal secretion of phenol red is a measure of bronchosecretolytic activity. This activity of the test substances was investigated after oral administration to female mice. The ED50 -values shown in Table 1 were calculated from the regression curves.

[2] = system: carrageenin-induced inflammation (oedema formation); experiment: Antiphlogistic activity: carrageenin-oedema test, right-hand rear paw; assay type: in vivo; details: 100 mg/kg i.g., 30 minutes before injection of the carrageenin; male rats
Description: The antiphlogistic properties of the compounds according to the invention were determined by the carrageenin-oedema test in male rats (average weight 130-160 g, SIV 50, Messrs Ivanovas, Kisslegg). The inhibition of the carrageenin-induced inflammation (oedema formation) was measured on the right-hand rear paw. The test substances were administered intragastrally by esophagus probe 30 minutes before injection of the carrageenin. The results are shown in Table II (Higgs et.al., European Journal of Pharmacology 66, 81-86 (1980)).

SMILES	ED50 [1]	Inhibition in % (carrageenin-induced oedema formation) [2]
Nc1c(Br)cc(Br)cc1CN[C@H]1CC[C@H](O)CC1 [Ambroxol, trans-4-(2-amino-3,5-dibromobenzyl)-aminocyclohexanol, reference compound]	250 mg/kg	–
Nc1ccnc(SCc2cccnc2)n1 [Example 1, 4-amino-2-(pyridyl-3-methylthio)-pyrimidine]	5 mg/kg	–
CC(Sc1ncccn1)c1cccnc1 (stereo not shown) [Example 7, 2-(pyridyl-3-(2-ethylthio)-pyrimidine oxalate]	15 mg/kg	–
Nc1cc(N)nc(SCc2cccnc2)n1 [Example 4, 4,6-diamino-2-(pyridyl-3-methylthio)-pyrimidine succinate]	> 100 mg/kg	30%
[O-][S+](Cc1cccnc1)c1ncccn1 (stereo not shown) [Example 9, 2-(pyridyl-3-methylsulfinyl)-pyrimidine hydrochloride]	2 mg/kg	–
Oc1ccnc(SCc2cccnc2)n1 [Example 2, 4-hydroxy-2-(pyridyl-3-methylthio)-pyrimidine]	100 mg/kg	45%
CC[n+]1cccc(CSc2ncccn2)c1 [Example 13, 2-(3-methylthio-1-ethylpyridinium)-pyrimidine iodide]	70 mg/kg	–
Nc1cc(O)nc(SCc2ccc(Cl)nc2)n1 [Example 6, 4-amino-6-hydroxy-2-(pyridyl-6-chloro-3-methylthio)-pyrimidine]	2 mg/kg	–
C[n+]1cccc(CSc2ncccn2)c1 [Example 12, 2-(3-methylthio-1-methylpyridinium)-pyrimidine iodide]	1 mg/kg	–
Cc1cc(O)nc(SCc2cccnc2)n1 [Example 5, 4-hydroxy-6-methyl-2-(pyridyl-3-methylthio)-pyrimidine]	15 mg/kg	–
Cc1ccnc([S+]([O-])Cc2cccnc2)n1 (stereo not shown) [Example 11, 4-methyl-2-(pyridyl-3-methylsulfinyl)-pyrimidine oxalate]	10 mg/kg	–
Nc1cc(O)nc(SCc2cccnc2)n1 [Example 3, 4-amino-6-hydroxy-2-(pyridyl-3-methylthio)-pyrimidine]	2 mg/kg	–
[O-][S+](Cc1ccncc1)c1ncccn1 (stereo not shown) [Example 10, 2-(pyridyl-4-methylsulfinyl)-pyrimidine hydrochloride]	100 mg/kg	–
Cc1ccc(C(C)Sc2ncccn2)cn1 (stereo not shown) [Example 8]	> 100 mg/kg	–

Reference: US5025016A, “Pyrimidine-thioalkyl pyridine derivatives, medicaments containing these compounds, and method of treatment” (Ludwig Heumann & Co. GmbH, priority 1983, dated 1991)
